Assay results reported in patent publication US20080311126A1, “Antisense Oligonucleotides Directed to Ribonucleotide Reducatase R2 and Uses Thereof in Combination Therapies for the Treatment of Cancer” (Genesense Technologies, Inc, priority 2004, published 2008).
Oligonucleotides are written 5' to 3', each unit as a sugar letter and its base; * is a phosphorothioate linkage, no mark a phosphodiester; rarer units and linkages stand in square brackets, end groups in braces. Plain capitals give the bases only. d = 2'-deoxy (DNA)

How the values were obtained:
[1] = test system: A2058 human melanoma cells; assay: A2058 melanoma xenograft in CD-1 nude mice; format: in vivo; details: A2058 (melanoma); Mouse CD-1
Protocol: A2058 human melanoma cells 1×10^7 cells in 100 μl of PBS) were subcutaneously injected into the right flank of 6-7 week old female CD-1 nude mice. A2058 is a metastatic melanoma cell line. After the size of tumour reached an approximate volume of 100 mm^3, 6 days post tumour cell injection, SEQ ID NO:1 was administered by bolus infusion into the tail vein every other day at 10 mg/kg. Control animals received saline alone for the same period. Antitumour effect of SEQ ID NO:1 was further compared to that of dacarbazine (DTIC) alone or that of SEQ ID NO:1 in combination with DTIC. DTIC was administered intravenously for 5 days in a row from day 6-10 at a dose of 80 mg/kg in 100 μl saline. All treatments were stopped at day 24. A day after the last treatment, tumours were excised from the animals and their weights were measured.

Hela S3 cells = assay: Relative colony forming efficiency, lipofectin +/- oligonucleotide 4 hours; format: cell-based, human; details: Hela S3 cervix carcinoma cells; averages of 2-8 determinations
Method in brief: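 Survival is given as percent of lipofectin-treated controls, scored as methylene blue-stained colonies after 7–10 days of regrowth. Beforehand, HeLa S3 cultures received a 4 h lipofectin-mediated pulse of oligonucleotide, normally at 0.2 μM.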

[2] = test system: HCT116 colon cell carcinoma; assay: Relative colony forming efficiency (Example 17, Table 13); format: cell-based, human; details: averages of 2-8 determinations
Method in brief: (§1)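 Antisense phosphorothioates are tested at 0.2 μM unless stated, transfected with DOTMA/DOPE (2.5 μg) for four hours. Colony counts after methylene blue staining give percent inhibition versus vehicle-lipid controls.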

[3] = test system: T-47D breast ductal carcinoma; assay: as above; format: cell-based, human; details: averages of 2-8 determinations
Method in brief: as §1

[4] = test system: PC-3 prostrate cell adenocarcinoma; assay: as above; format: cell-based, human; details: averages of 2-8 determinations
Method in brief: as §1

[5] = test system: HepG2 hepatocellular carcinoma; assay: as above; format: cell-based, human; details: averages of 2-8 determinations
Method in brief: as §1

A549 lung cell carcinoma = assay: as above; format: cell-based, human; details: averages of 2-8 determinations
Method in brief: as §1

[6] = test system: H596 lung adenosquamous carcinoma cells; assay: as above; format: cell-based, human; details: averages of 2-8 determinations
Method in brief: as §1

[7] = test system: Colo320 colon cell adenocarcinoma; assay: as above; format: cell-based, human; details: averages of 2-8 determinations
Method in brief: as §1

[8] = test system: MDA-MB-231 breast cell adenocarcinoma; assay: as above; format: cell-based, human; details: averages of 2-8 determinations
Method in brief: as §1

[9] = test system: T24 bladder cell carcinoma; assay: as above; format: cell-based, human; details: averages of 2-8 determinations
Method in brief: as §1

[10] = test system: MDA PaCa-2 pancreatic cell carcinoma; assay: as above; format: cell-based, human; details: MIA PaCa-2 pancreatic cell carcinoma; averages of 2-8 determinations
Method in brief: as §1

[11] = test system: LS513 multi-drug resistant colon carcinoma cells; assay: LS513 multi-drug resistant colon carcinoma xenograft in SCID mice; format: in vivo, human; details: LS513 (colon) multi-drug resistant (CPT-11 sensitive); SCID
Protocol: LSS13 multi-drug resistant colon carcinoma cells (1×10^7 cells in 100 μl of PBS) were subcutaneously injected into the right flank of 6-7 weeks old female SCID mice. After the size of tumour reached an approximate volume of […], 8 days post tumour cell injection, SEQ ID NO:1 was administered by bolus infusion into the tail vein every other day at 10 mg/kg. Control animals received saline alone for the same period. Antitumour effect of SEQ ID NO:1 was further compared to that of CPT-11 alone or in combination. CPT-11 was administered i.p. for 5 days at a dose of 20 mg/kg/day. Antitumour activities were estimated by the inhibition of tumour volume, which was measured with caliper. Each point represents mean tumour volume calculated from 10 animals per experimental group. Tumour weights were measured after animals were sacrificed at the end of the treatment. These cells are not resistant to CPT-11 which was used as a positive control.

[12] = test system: HT-29 human colon cancer cells; assay: HT-29 colon tumour xenograft in CD-1 nude mice; format: in vivo; details: HT-29 (colon); Mouse CD-1; CPT-11 study
Protocol: HT-29 human colon cancer cells (3×10^6 cells in 100 μl of PBS) were subcutaneously injected into the right flank of 6-7 weeks old female CD-1 nude mice. After the size of tumour reached an approximate volume of 50 mm^3, 4 days post tumour cell injection, mitomycin C was administered by bolus infusion into the tail vein at days 4, 11 and 18 with a dose of 3.5 mg/kg/week. Antitumour effect of mitomycin C was further compared to that of SEQ ID NO:1 in combination with mitomycin C. SEQ ID NO:1 was administered by bolus infusion into the tail vein every day at 6 mg/kg and mitomycin C was administered intravenously at days 4, 11 and 18 with a dose of 3.5 mg/kg/week, one hour after the treatments with SEQ ID NO:1. Control animals received saline alone for the same period as SEQ ID NO:1. All treatments were stopped at day 22. A day after the last treatment, tumours were excised from the animals and their weights were measured.
HT-29 human colon cancer cells (3×10^6 cells in 100 μl of PBS) were subcutaneously injected into the right flank of 5-6 week old female CD-1 nude mice. After the size of tumour reached an approximate volume of 100 mm^3, 7 days post tumour cell injection, SEQ ID NO:1 was administered by bolus infusion into the tail vein every other day at 10 mg/kg. Control animals received saline alone for the same period. Antitumour effect of SEQ ID NO:1 was further compared to that of CPT-11 alone or that of SEQ ID NO:1 in combination with CPT-11. CPT-11 was administered intraperitoneally for 5 days in a row from […] with a dose of 20 mg/kg in 100 μl saline. All treatments were stopped at day 32. A day after the last treatment, tumours were excised from the animals and their weights were measured.
HT-29 human colon cancer cells (3×10^6 cells in 100 μl of PBS) were subcutaneously injected into the right flank of 6-7 week old female CD-1 nude mice. Treatments started at day 5 post tumour cell injection, SEQ ID NO:1 and 5-FU were administered as outlined below: • Groups and treatment: • Group 1. Saline treated group: saline:0.1 ml/2 days, i.v.; • Group 2. SEQ ID NO:1 treated group: 10 mg/kg/2 days in 100 μL saline, i.v.; • Group 3. 5-FU treated group:13 mg/kg/5 days/week (one week on and one week off), i.v.; • Group 4. SEQ ID NO:1 plus 5-FU treated group.
HT-29 human colon cancer cells (3×10^6 cells in 100 μl of PBS) were subcutaneously injected into the right flank of 5-6 week old female CD-1 nude mice. Treatments started 4 days post tumour cell injection, SEQ ID NO: 1 and Capecitabine were administered as outlined below: • Group and Treatment: • Group 1: treated with 0.2 ml vehicle solution for capecitabine, o.p.; • Group 2: treated with 0.1 ml saline, i.v.; • Group 3: treated with 359 mg/kg/day×5/w Capecitabine in 0.2 ml vehicle solution, o.p.; • Group 4: treated with 10 mg/kg/2 days SEQ ID NO:1 in 0.1 ml saline i.v.; • Group 5: treated with 10 mg/kg/2 days SEQ ID NO:1 in 0.1 ml saline, i.v. plus 359 mg/kg/day×5/w capecitabine in 0.2 ml vehicle solution, o.p.

[13] = test system: DU145 human prostatic cancer cells; assay: DU145 prostatic tumour xenograft in SCID mice; format: in vivo; details: for Tumour weight as % of saline control: DU145 (prostatic), Mouse SCID
Protocol: In both experiments, DU145 human prostatic cancer cells (1×10^7 cells in 100 μl of PBS) were subcutaneously injected into the right flank of 6-7 weeks old male SCID mice. After the size of tumour reached an approximate volume of 50 mm^3, 13 FIG. 15A) or 11 (FIG. 15B) days post tumour cell injection, SEQ ID NO:1 was administered by bolus infusion into the tail vein every other day at 10 mg/kg 15 times (FIG. 15A) or 14 times (FIG. 15B), respectively. Control animals received saline alone for the same period. Antitumour effect of SEQ ID NO:1 was further compared to that of mitoxantrone (Novantrone®) alone or in combination. Mitoxantrone was administered intravenously once at the beginning of the treatments at a dose of 2 mg/kg (FIG. 15A) or once a week for four weeks at a reduced dose of 0.8 mg/kg (FIG. 15B). All treatments were stopped at day 42 (FIG. 15A) or 38 (FIG. 15B); respectively. A day after the last treatment, tumours were excised from the animals and their weights were measured.

[14] = test system: PC-3 human prostatic cancer cells; assay: PC-3 prostatic tumour xenograft in SCID mice; format: in vivo
Protocol: In both experiments, PC-3 human prostatic cancer cells (1×10^7 cells in 100 μl of PBS) were subcutaneously injected into the right flank of 6-7 weeks old male SCID mice. After the size of tumour reached an approximate volume of 50 mm^3, 14 days post tumour cell injection, SEQ ID NO:1 was administered by bolus infusion into the tail vein every other day at 10 mg/kg 18 times (FIG. 14A) or 17 times (FIG. 14B), respectively. Control animals received saline alone for the same period. Antitumour effect of SEQ ID NO:1 was further compared to that of mitoxantrone (Novantrone®) alone or in combination. Mitoxantrone was administered intravenously once at the beginning of the treatments at a dose of 2 mg/kg (FIG. 14A) or once a week for four weeks at a reduced dose of 0.8 mg/kg (FIG. 14B). All treatments were stopped at day 50 (FIG. 14A) or 48 (FIG. 14B), respectively. A day after the last treatment, tumours were excised from the animals and their weights were measured.

| Compound | Reduced relative colony forming efficiency, Hela S3 (% inhibition of colony forming ability) (Hela S3 cells) [%] | Reduced relative colony forming efficiency, HCT116 (% inhibition of colony forming ability) [2] [%] | Reduced relative colony forming efficiency, T-47D (% inhibition of colony forming ability) [3] [%] | Reduced relative colony forming efficiency, PC-3 (% inhibition of colony forming ability) [4] [%] | Reduced relative colony forming efficiency, HepG2 (% inhibition of colony forming ability) [5] [%] | Reduced relative colony forming efficiency, A549 (% inhibition of colony forming ability) (A549 lung cell carcinoma) [%] | Reduced relative colony forming efficiency, 11596 (% inhibition of colony forming ability) [6] [%] | Reduced relative colony forming efficiency, Co1o320 (% inhibition of colony forming ability) [7] [%] | Reduced relative colony forming efficiency, MDA-MB-231 (% inhibition of colony forming ability) [8] [%] | Reduced relative colony forming efficiency, MIA PaCa-2 (% inhibition of colony forming ability) [10] [%] | other results |
| --- | --- | --- | --- | --- | --- | --- | --- | --- | --- | --- | --- |
| CN(C)/N=N/c1[nH]cnc1C(N)=O [DTIC, dacarbazine, reference compound] |  |  |  |  |  |  |  |  |  |  | Tumour weight as % of saline control [1]: 68% |
| CCTTGCCCTGAGAGATTCCT (antisense dC*dC*dT*dT*dG*dC*dC*dC*dT*dG*dA*dG*dA*dG*dA*dT*dT*dC*dC*dT) [AS-II-2083-20] | 84.58 | 87.46 | 89.32 | 32.03 | 93.64 | 90.65 | 82.98 | 87.28 | 68.88 | 71 | Reduced relative colony forming efficiency, HCT116 (% inhibition of colony forming ability) ([2]; listed as AS-II-2083-20 *): 41.16%; Reduced relative colony forming efficiency, T-47D (% inhibition of colony forming ability) ([3]; listed as AS-II-2083-20 *): 43.61%; Reduced relative colony forming efficiency, HepG2 (% inhibition of colony forming ability) ([5]; listed as AS-II-2083-20 *): 46.14%; Reduced relative colony forming efficiency, A549 (% inhibition of colony forming ability) (A549 lung cell carcinoma; listed as AS-II-2083-20 *): 31.73%; Reduced relative colony forming efficiency, 11596 (% inhibition of colony forming ability) ([6]; listed as AS-II-2083-20 *): 49.37%; Reduced relative colony forming efficiency, Co1o320 (% inhibition of colony forming ability) ([7]; listed as AS-II-2083-20 *): 52.54%; Reduced relative colony forming efficiency, T24 (% inhibition of colony forming ability) [9]: 82.43%; Reduced relative colony forming efficiency, T24 (% inhibition of colony forming ability) ([9]; listed as AS-II-2083-20 *): 9.52% |
| CCc1c2c(nc3ccc(OC(=O)N4CCC(N5CCCCC5)CC4)cc13)-c1cc3c(c(=O)n1C2)COC(=O)[C@]3(O)CC [CPT-11, Irinotecan, reference compound] |  |  |  |  |  |  |  |  |  |  | Tumour weight as % of saline control [11]: 47%; Tumour weight as % of saline control [12]: 36% |
| O=C1c2c(O)ccc(O)c2C(=O)c2c(NCCNCCO)ccc(NCCNCCO)c21 [Novantrone, mitoxantrone] |  |  |  |  |  |  |  |  |  |  | Tumour weight as % of saline control ([13]; first of two value columns (two independent experiments)): 40%; Tumour weight as % of saline control ([13]; second of two value columns (two independent experiments)): 60%; antitumour effect (tumour weight) ([13]; FIG. 15B, SEQ ID NO:1 10 mg/kg 14 times, mitoxantrone 0.8 mg/kg once a week for four weeks): significant delay of tumour growth; antitumour effect (tumour weight) ([14]; FIG. 14B, SEQ ID NO:1 10 mg/kg 17 times, mitoxantrone 0.8 mg/kg once a week for four weeks): significant delay of tumour growth; Tumour weight as % of saline control ([14]; PC-3 (prostatic), Mouse SCID): 57% |
| GAGCAGCCAGGACAGGACGG (antisense dG*dA*dG*dC*dA*dG*dC*dC*dA*dG*dG*dA*dC*dA*dG*dG*dA*dC*dG*dG) [AS-II-151-20] | 66.75 | 78.09 | 95.39 | 35.68 | 89.53 | 84.28 | 69.12 | 90.12 | 41.64 | 75.38 |  |
